This is an account of results in patent US7662977B2, “PI-3 kinase inhibitor prodrugs” (Semafore Pharmaceuticals, Inc., priority 2003, dated 2010).

Peptide text beside a SMILES is read from it. * marks the point of attachment. X1 = O=C(CCC(=O)*)OC[N+]1(c2cc(=O)c3cccc(-c4ccccc4)c3o2)CCOCC1

The nature of data set [1]: Reversibility of prodrugs to compound 1 in aqueous phosphate buffer (LC-MS over time). The conditions noted are these: for half-life: phosphate buffer.
Description: Prodrug Compounds were dissolved in water or in DMSO (if not freely soluble in water) and then diluted at least 10-fold into 50 mM phosphate buffer at pH=7.4 or pH=4.8 and allowed to stand at room temperature. The final concentration of the compounds in aqueous environment ranged from 50 to 500 uMolar.
For data set [2] the following is noted: portion not accumulated in the skeleton; cited from earlier work.
In the next data set the test system is nude mice. The data set is described as follows: Acute toxicity after intravenous injection in nude mice. It counts as in vivo. As to the method:
(§1) In order to prepare the acetoxymethyl quarternary salt of Compound 1101, 1.0 g Compound 1101 was dissolved in 10 ml dry acetonitrile in a glass vial, and 1.0 g bromomethyl acetate (2.0 equivalents) was added and allowed to stir at room temperature overnight. LCMS indicated presence of starting material, so the reaction was heated at 65° C. in an oil bath for 8 hours. The mother liquors were decanted from the solid and the solids washed with a small amount of cold acetonitrile. The solid was dried in a vacuum dessicator overnight. The product was identified as 264 mg of a white solid with a retention time of 2.204 minutes, M+=380 which was 97% pure. […] Additionally, 250 uL of this 32.5 mM solution of compound A040-70 was administered to a nude mouse by oral gavage.
Intravenously administered Compound 1 was determined to have a 100% mortality within 5 minutes of administration in three nude mice at a dose level of 16 mg/kg.

Data set [3] relates to J774 macrophages. The data set is described as follows: Phagocytosis of sensitized sRBCs in J774 macrophages (class I PI-3 kinase-dependent pathway). It counts as cell-based.
The test system of data set [4] is EDC-CBF1 endothelial cells. The data set is described as follows: Tube formation of EDC-CBF1 endothelial cells on Matrigel. Type of data set: cell-based. The conditions noted are these: overnight.
Description: In this example it was determined to what degree PI 3 kinase inhibitors (including targeted PI3 kinase inhibitor prodrugs) could inhibit tube formation. Matrigel was plated into 12-well plate wells and solidified in 37° C. for 2 hours. 1×10^5 EDC-CBF1 endothelial cells were then put on the top of the Matrigel layer in the presence of PBS, RADfV (cyclic negative control peptide), RGDfV (cyclic positive control peptide), RADS (linear negative control peptide), compound 1, or Compound 1126 at 20° M concentration overnight. Pictures were then taken using a microscope.
Data set [5] concerns human non-small cell lung cancer cells: H1299. Kind of data set: H1299 non-small cell lung cancer xenograft in nude mice. Type of data set: in vivo. As to the method: Male nude mice of 4-6 weeks in age weighing around 30 grams were inoculated subcutaneously in the right flank with 5 million tumor cells (human non-small cell lung cancer cells: H1299) on day 0. After 14 days of allowing the tumors to grow the animals were divided into 3 groups of 5 animals each. One group received vehicle control alone. One group received twice-per-day tail vein injections (i.v) of 50 uL volume of 24.4 millimolar solution of Compound 1126 in phosphate buffered saline corresponding to 25 mg/kg/day dosing level of the active component of the prodrug (i.e. compound 1). The last group received twice-per-day tail vein injections (i.v) of 50 uL volume of 4.9 millimolar solution of Compound 1126 in phosphate buffered saline corresponding to 5 mg/kg/day dosing level of the active component of the prodrug (compound 1). The tumors were measured every three days using calipers to determine the tumor volume and the animals weights were recorded when the animals were sacrificed on day 27. The results are shown in Table 7 and indicate strong tumor volume reduction versus control for both dose levels at the first datapoint only 3 days after treatment (Day 17) and continuing through to the end of the study: […]

Data set [6] concerns J774 macrophages. The data set is described as follows: Phagocytosis of sensitized sRBCs in J774 macrophages (class I PI-3 kinase-dependent pathway). Type of data set: cell-based. The following applies: for phagocytic index (PGI): 5 μM. As to the method: The columns indicate phagocytic index or percentage of cells positive for phagocytic response. The phagocytic index is the number of sRBC's (sheep red blood cells) found per 100 J774 cells and the % of phagocytic cells is the % of J774 cells that have phagocytized at least 1 sRBC. The error bars represent standard deviation of mean.
The bioactivity of LY294002 (Compound 1) was determined by assaying phagocytosis in J774 macrophages, which is a class I PI-3 kinase-dependent pathway. Briefly, […] DMSO control for 1 h in DMEM with 10% FCS and then sensitized sRBCs (sheep red blood cells) was added at a target to effector ratio equal to 100:[…] Cells were exposed to hypotonic shock to remove red blood cells and phagocytosis was determined by measurement of hemoglobin concentration in the cell lysates. […]

Data set [7] relates to p53 transcriptional activity. The data set is described as follows: p53 luciferase (transcriptional activity) in HBECs. It counts as cell-based. The following applies: for induction of p53 luciferase activity versus control: HBECs, Compound 1: 6 hour exposure. An excerpt: This experiment tested the effect of PI 3 kinase inhibitors (Compound 1 and the targeted prodrug version of Compound 1; Compound 1126) on the induction of p53 luciferase activity. The transfection procedure was similar to that described in the literature to monitor p53 transcription.

Data set [8] has as its system human brain cancer cell line (U87MG). Kind of data set: U87MG brain cancer xenograft model. It counts as in vivo. The conditions noted are these: 25 mg/kg/day; for % Tumor Volume Reduction compared to vehicle only control: treatment from day 7, U87MG xenograft. How it is done:
Male nude mice of 4-6 weeks in age weighing around 30 grams were inoculated subcutaneously in the right flank with 5 million tumor cells (human non-small cell lung cancer cells: H1299) on day 0. After 14 days of allowing the tumors to grow the animals were divided into 3 groups of 5 animals each. One group received vehicle control alone. One group received twice-per-day tail vein injections (i.v) of 50 uL volume of 24.4 millimolar solution of Compound 1126 in phosphate buffered saline corresponding to 25 mg/kg/day dosing level of the active component of the prodrug (i.e. compound 1). The last group received twice-per-day tail vein injections (i.v) of 50 uL volume of 4.9 millimolar solution of Compound 1126 in phosphate buffered saline corresponding to 5 mg/kg/day dosing level of the active component of the prodrug (compound 1). The tumors were measured every three days using calipers to determine the tumor volume and the animals weights were recorded when the animals were sacrificed on day 27. The results are shown in Table 7 and indicate strong tumor volume reduction versus control for both dose levels at the first datapoint only 3 days after treatment (Day 17) and continuing through to the end of the study:
An animal study was run as described in Example above except using a human brain cancer cell line (U87MG) and with treatment starting on day 7 such that the first tumor volume measurement occurred on day 10.

Data set [9] can be described thus: Water solubility / solution in phosphate buffered saline. Type of data set: physicochemical. As to the method: as §1
Setting [10] is: 20 uM, exposure-limited: 20 minute exposure then removal of test solution, solvent blank 163.

As for `CN1CC(=O)N(c2ccc(C(=O)OC[N+]3(c4cc(=O)c5cccc(-c6ccccc6)c5o4)CCOCC3)cc2)C1=S` [Compound A017-59], in data set [1] (phosphate buffer at pH=7.4, over a 17 hour period), the “conversion back to compound 1” value is “significant amounts of this compound converted back to compound 1”.

`O=P([O-])(O)CN(CCN(CP(=O)([O-])O)CP(=O)(O)O)CP(=O)([O-])O.[153Sm+3]` [^153Sm-EDTMP]: in data set [2], the “time after administration at which excretion is almost complete” value is ≤ 6 h.

Consider “2-(4-morpholinyl)-8-phenyl-4H-1-benzopyran-4-one [Compound 1]”, for which, in the data set on nude mice (mice, injection of 1.04 uMoles), the “observed effects after injection” value is given as “immediate death in three out of three mice”.

Consider “arg-gly-asp-ser [RGDS, reference compound]”, for which the “phagocytic index (PGI)” value in the data set on J774 macrophages [3] (setting [10]) is on record as 170. The “tube formation compared with PBS control” value in data set [4] is reported as “not much difference”.

In the case of `COCCOCCOCCOCCC(=O)OC[N+]1(c2cc(=O)c3cccc(-c4ccccc4)c3o2)CCOCC1` [Compound A027-85], the half-life (usually the time needed for the level to fall by half in the phase considered) in data set [1] (pH 7.4) is ~3 h.

Turning to `O=C(CCC(=O)OC[N+]1(c2cc(=O)c3cccc(-c4ccccc4)c3o2)CCOCC1)NCc1ccc(C(=O)NCCN(CCN(CP(=O)(O)O)CP(=O)(O)O)CCN(CP(=O)(O)O)CP(=O)(O)O)cc1` [Compound A046-89P], the “conversion back to compound 1” value in [1] (after 24 hours standing at pH=7.0, phosphate buffer) is “converted completely back to compound 1”.

For the compound `N=C(N)NCCCC(NC(=O)CCC(=O)OC[N+]1(c2cc(=O)c3cccc(-c4ccccc4)c3o2)CCOCC1)C(=O)NCC(=O)NC(CC(=O)O)C(=O)NC(CO)C(=O)O` (centres unmarked) [Compound 1126] (X1-RGDS-OH; configuration not given here), the “% Tumor Volume Reduction compared to vehicle only control” value in data set [5] (5 mg/kg/day i.v. twice per day from day 14, H1299, Day 17) is reported as 29%; in data set [5] (5 mg/kg/day i.v. twice per day from day 14, H1299, Day 20), 50%; in [5] (5 mg/kg/day i.v. twice per day from day 14, H1299, Day 24), 44%; in data set [5] (5 mg/kg/day i.v. twice per day from day 14, H1299, Day 27), 35%; in data set [5] (25 mg/kg/day i.v. twice per day from day 14, H1299, Day 17), 35%; in data set [5] (25 mg/kg/day i.v. twice per day from day 14, H1299, Day 20), 66%. Besides, the “% Tumor Volume Reduction compared to vehicle only control” value in data set [5] (25 mg/kg/day i.v. twice per day from day 14, H1299, Day 24) is recorded as 68%; in data set [5] (25 mg/kg/day i.v. twice per day from day 14, H1299, Day 27), 68%; in data set [8] (Day 10), 20.2%; in data set [8] (Day 14) it was 52.6%; in data set [8] (Day 17) it was 38.5%; in data set [8] (Day 21), 35.2%. Also, the “animal body weights, control group versus the two treatment groups” value in data set [5] (day 27, 25 and 5 mg/kg/day i.v., nude mice) is “lack of statistically significant difference”. Besides, in [5] (two week administration period, 25 and 5 mg/kg/day i.v., nude mice), the “tolerability of twice per day doses” value is given as “well tolerated”. Besides, the “phagocytic index (PGI)” value came to 88 in the data set with J774 macrophages [6] (aqueous pH=7 incubation time 2 hours); 78 in the data set with J774 macrophages [6] (aqueous pH=7 incubation time 5 hours); 37 in the data set with J774 macrophages [6] (aqueous pH=7 incubation time 10 hours); 140 in the data set on J774 macrophages [6] (time zero with no preincubation); 206 in the data set with J774 macrophages [3] (1 uM, 20 minute incubation, removal, then 2 hours for phagocytosis, 0 uM gave 213); 143 in the data set on J774 macrophages [3] (3 uM, 20 minute incubation, removal, then 2 hours for phagocytosis, 0 uM gave 213). The “phagocytic index (PGI)” value in the data set on J774 macrophages [3] (10 uM, 20 minute incubation, removal, then 2 hours for phagocytosis, 0 uM gave 213) was determined as 33; with J774 macrophages [3] (setting [10]) it was 50. The “induction of p53 luciferase activity versus control” value in data set [7] is ~3 fold. In the data set on nude mice (intravenous, 22 mg/kg, three nude mice, after 1 hour of observation), the mortality (as a rule, the percentage killed) stood at 0%. Also, the “toxicity in U87MG xenograft study” value in [8] was “desirable lack of toxicity”. In addition, the “tube formation compared with PBS control” value in [4] is “significantly less”.

For the compound `CC(=O)OC[N+]1(c2cc(=O)c3cccc(-c4ccccc4)c3o2)CCOCC1` [Compound A040-70], the half-life in [1] (pH 7.4) is ~10 h. Further, the water solubility result in [9] is “very high water solubility”. In addition, in data set [9] (27 mg in 1.865 mL PBS, resulting pH around 4), the “concentration of solution prepared in phosphate buffered saline” value is reported as 32.5 millimolar.

For the compound `Cc1ccc(C(=O)Cn2c3c(sc2=N)CCCC3)cc1` [pifithrin alpha], in data set [7] (20 uM concentration), the “effect on induction of p53 function by Compound 1 and Compound 1126” value is “abrogated”.

On to `O=c1cc(N2CCOCC2)oc2c(-c3ccccc3)cccc12` [Compound 1, 2-(4-morpholinyl)-8-phenyl-4H-1-benzopyran-4-one], for which, in the data set on J774 macrophages [6] (LY294002 at 10, 1 and 0.1 μM for 1 h, J774 cells), the blocking of phagocytosis entry is “significantly blocked phagocytosis at all concentrations in a dose dependent manner”. Moreover, the “induction of p53 luciferase activity versus control” value in [7] is on record as “more than two fold higher”. The compound further came in with a mortality in the data set on nude mice (nude, mouse, in vivo, iv, 16 mg/kg, 5 min) of 100%. Also, the “phagocytic index (PGI)” value in the data set with J774 macrophages [3] (setting [10]) is recorded as 190. Besides, the “tube formation compared with PBS control” value in [4] is “significantly less”.

Turning to `CC(C)(C)OC(=O)CCC(=O)OC[N+]1(c2cc(=O)c3cccc(-c4ccccc4)c3o2)CCOCC1` [Compound 1110], the half-life in data set [1] (pH 4.8) is > 120 h; in data set [1] (pH 7.4) it was ~10 h.
